In the supplement of paper PMC10307832:

How the values were obtained:
Experiment in all cases: relative viability (nuclei count vs DMSO), 5 days (fraction); higher = more cells survive
[1] = compound: CC(C)(C)c1cc(NC(=O)Nc2ccc(-c3cn4c(n3)sc3cc(OCCN5CCOCC5)ccc34)cc2)no1 [Quizartinib] + Cc1cc(Nc2cc(N3CCN(C)CC3)nc(Sc3ccc(NC(=O)C4CC4)cc3)n2)n[nH]1 [Tozasertib] (partner 0.1 µM)
In short: (§1)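 Lung cancer cell lines were seeded in 1536-well plates and dosed by pin tool the next day, with either a single drug or a fixed anchor-drug dose combined with five library-drug doses (not always all listed) spaced in √10 steps. Five days later, one step fixed the cells and stained their nuclei (final 0.05% Triton X-100, 1% formaldehyde, 1 ug/ml Hoechst), and nuclei were counted on 4× images. Relative viability is the nuclei count in treated wells divided by the count in vehicle wells, and each value is the median of duplicate plates.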

[2] = compound: COCC[n+]1c2c(n(Cc3cnccn3)c1C)C(=O)c1ccccc1C2=O [YM155] + CC1(C)CCC(c2ccc(Cl)cc2)=C(CN2CCN(c3ccc(C(=O)NS(=O)(=O)c4ccc(N[C@H](CCN5CCOCC5)CSc5ccccc5)c(S(=O)(=O)C(F)(F)F)c4)cc3)CC2)C1 [Navitoclax] (partner 0.5 µM)
In short: as §1

[3] = compound: COCC[n+]1c2c(n(Cc3cnccn3)c1C)C(=O)c1ccccc1C2=O [YM155] + C[C@@H](Oc1cc(-c2cnn(C3CCNCC3)c2)cnc1N)c1c(Cl)ccc(F)c1Cl [Crizotinib] (partner 1 µM)
In short: as §1

[4] = compound: COCC[n+]1c2c(n(Cc3cnccn3)c1C)C(=O)c1ccccc1C2=O [YM155] + Nc1nc2[nH]cc(CCc3ccc(C(=O)N[C@@H](CCC(=O)O)C(=O)O)cc3)c2c(=O)[nH]1 [Pemetrexed] (partner 0.2 µM)
In short: as §1

| Cell Line | relative viability ([1]; first compound 0.001 µM) | relative viability ([1]; first compound 0.003162 µM) | relative viability ([1]; first compound 0.01 µM) | relative viability ([1]; first compound 0.03162 µM) | relative viability ([1]; first compound 0.1 µM) | relative viability ([2]; first compound 0.002 µM) | relative viability ([2]; first compound 0.006325 µM) | relative viability ([2]; first compound 0.02 µM) | relative viability ([2]; first compound 0.06325 µM) | relative viability ([3]; first compound 0.002 µM) | relative viability ([3]; first compound 0.006325 µM) | relative viability ([3]; first compound 0.02 µM) | relative viability ([3]; first compound 0.06325 µM) | relative viability ([4]; first compound 0.002 µM) | relative viability ([4]; first compound 0.006325 µM) | relative viability ([4]; first compound 0.02 µM) | relative viability ([4]; first compound 0.06325 µM) |
| --- | --- | --- | --- | --- | --- | --- | --- | --- | --- | --- | --- | --- | --- | --- | --- | --- | --- |
| NCI-H2009 | 0.692 | 0.695 | 0.628 | 0.653 | 0.506 | 1.16 | 1.13 | 1.06 | 0.567 | 1.02 | 0.992 | 0.725 | 0.0795 | 0.93 | 1.07 | 0.85 | 0.528 |
| NCI-H2023 | 0.278 | 0.32 | 0.272 | – | 0.177 | 1.04 | 1.07 | 0.987 | 0.261 | 0.719 | 0.734 | 0.717 | 0.361 | 0.23 | 0.247 | 0.194 | 0.155 |
| NCI-H2085 | 0.679 | 0.752 | 0.816 | 0.614 | 0.45 | 1.06 | 0.989 | 0.99 | 0.674 | 0.698 | 0.767 | 0.77 | 0.477 | 0.705 | 0.884 | 0.911 | 0.869 |
| NCI-H2087 | – | 0.226 | 0.233 | 0.189 | 0.262 | 1.03 | 0.875 | 0.969 | 0.816 | 0.914 | 0.71 | 0.883 | 0.648 | 0.639 | 0.677 | 0.685 | 0.604 |
| NCI-H2126 | 0.751 | 0.848 | 0.831 | – | 0.846 | 0.866 | 0.877 | 0.871 | 0.875 | 0.988 | 0.967 | 1.07 | 1.04 | 0.696 | 0.691 | 0.67 | 0.753 |
| NCI-H2170 | 0.665 | 0.654 | 0.853 | 0.749 | 0.804 | 0.545 | 0.572 | 0.524 | 0.692 | 1.13 | 1.18 | 1.24 | 1.18 | 0.253 | 0.256 | 0.271 | 0.264 |
| NCI-H2228 | 0.2 | 0.2 | 0.208 | 0.228 | 0.187 | 1.03 | 0.487 | 0.956 | 0.857 | 0.527 | 0.445 | 0.368 | 0.563 | 0.329 | 0.318 | 0.332 | 0.326 |
| NCI-H2347 | 0.547 | 0.419 | 0.531 | 0.511 | 0.521 | 0.756 | 0.779 | 0.83 | 0.46 | 0.683 | 0.644 | 0.561 | 0.633 | 0.542 | 0.407 | 0.436 | 0.39 |
| NCI-H2405 | 0.742 | 0.722 | 0.726 | 0.738 | 0.68 | 0.891 | 0.602 | 0.699 | 0.226 | 0.8 | 0.82 | 0.831 | 0.644 | 0.886 | 0.961 | 0.914 | 0.452 |
| NCI-H3122 | – | 0.368 | 0.483 | – | 0.337 | 0.969 | 1.04 | 1.02 | 1.05 | 0.269 | 0.239 | 0.257 | 0.272 | 0.185 | 0.214 | 0.189 | 0.186 |
| PC-3 [JPC-3] | 0.835 | 0.849 | 0.909 | 0.849 | 0.852 | 0.867 | 0.847 | 0.871 | 0.887 | 0.939 | 1.04 | 1.06 | 1.1 | 0.978 | 1.22 | 1.07 | 0.967 |
| PC-14 | 0.555 | 0.551 | 0.584 | 0.556 | 0.558 | 1.02 | 1.06 | 0.997 | 0.982 | 0.948 | 0.931 | 1.04 | 0.818 | 0.126 | 0.136 | 0.148 | 0.141 |
| RERF-LC-KJ | 0.47 | 0.445 | 0.53 | 0.248 | 0.337 | 1.04 | 1.07 | 0.974 | 1.06 | 0.775 | 0.761 | 0.868 | 0.766 | 0.487 | 0.467 | 0.487 | 0.471 |
| SK-LU-1 | 0.268 | 0.303 | 0.378 | 0.319 | 0.309 | 1.05 | 0.559 | 1.27 | 0.418 | 0.871 | 0.931 | 1.11 | 0.805 | 0.946 | 0.956 | 0.91 | 0.684 |
| SK-MES-1 | 0.852 | 0.904 | 0.864 | – | 0.77 | 1.3 | 1.36 | 1.28 | 1.07 | 1.01 | 0.963 | 1.07 | 0.85 | 0.937 | 1.03 | 0.955 | 0.291 |
| SW 1573 | 0.163 | 0.175 | 0.225 | – | 0.265 | 1.05 | 0.959 | 1.04 | 0.555 | 0.767 | 0.877 | 0.902 | 0.581 | 0.867 | 0.835 | 0.362 | 0.0865 |
| UMC-11 | – | 0.194 | 0.204 | 0.223 | 0.222 | 0.293 | 0.332 | 0.29 | 0.375 | 0.525 | 0.602 | 0.684 | 0.505 | 0.817 | 0.823 | 0.878 | 0.802 |
